The results in this text go back to patent publication US9181195B2, “Sigma receptor inhibitors” (Laboratorios Del Dr. Esteve, S.A., priority 2010, dated 2015).

Counter-ions that a name gives are not always drawn.

As a reminder, the Ki is the equilibrium dissociation constant of an inhibitor or competing ligand from its target.

In the experiment the target is T1, σ1-receptor (Cavia porcellus, UniProt Q60492).
T1 construct: guinea pig brains were homogenized; from tissue; host or cells: guinea pig brain membranes
T1 sequence (Q60492 whole entry): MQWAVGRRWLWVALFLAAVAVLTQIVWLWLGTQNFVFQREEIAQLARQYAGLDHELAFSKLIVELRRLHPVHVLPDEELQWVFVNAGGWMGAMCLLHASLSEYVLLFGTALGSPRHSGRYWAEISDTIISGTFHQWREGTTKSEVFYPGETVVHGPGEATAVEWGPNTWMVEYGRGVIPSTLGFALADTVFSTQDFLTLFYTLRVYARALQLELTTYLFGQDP
As to the kind of experiment: σ1-receptor binding assay, [3H](+)-pentazocine, guinea pig brain membranes. The note with it: [3H](+)-pentazocine 0.5 nM, non-specific binding 1 μM haloperidol, 37° C., 150 min. As for the experimental part:
Some representative compounds of the invention were tested for their activity as sigma (sigma-1) inhibitors. The following protocol was followed:
Brain membrane preparation and binding assays for the σ1-receptor were performed as described (DeHaven-Hudkins et al., 1992) with some modifications. In brief, guinea pig brains were homogenized in 10 vols. (w/v) of Tris-HCl 50 mM 0.32 M sucrose, pH 7.4, with a Kinematica Polytron PT 3000 at 15000 r.p.m. for 30 s. The homogenate was centrifuged at 1000 g for 10 min at 4° C. and the supernatants collected and centrifuged again at 48000 g for 15 min at 4° C. The pellet was resuspended in 10 volumes of Tris-HCl buffer (50 mM, pH 7.4), incubated at 37° C. for 30 min, and centrifuged at 48000 g for 20 min at 4° C. Following this, the pellet was resuspended in fresh Tris-HCl buffer (50 mM, pH 7.4) and stored on ice until use.
Each assay tube contained 10 μL of [^3H](+)-pentazocine (final concentration of 0.5 nM), 900 μL of the tissue suspension to a final assay volume of 1 mL and a final tissue concentration of approximately 30 mg tissue net weight/mL. Non-specific binding was defined by addition of a final concentration of 1 μM haloperidol. All tubes were incubated at 37° C. for 150 min before termination of the reaction by rapid filtration over Schleicher & Schuell GF 3362 glass fibre filters [previously soaked in a solution of 0.5% polyethylenimine for at least 1 h]. Filters were then washed with four times with 4 mL of cold Tris-HCl buffer (50 mM, pH 7.4). Following addition of scintillation cocktail, the samples were allowed to equilibrate overnight. The amount of bound radioactivity was determined by liquid scintillation spectrometry using a Wallac Winspectral 1414 liquid scintillation counter. Protein concentrations were determined by the method of Lowry et al, (1951).
In the case of `c1ccc2ncc(-n3ccc(CCCN4CCOCC4)n3)cc2c1` [Compound 17, 4-(3-(1-(quinolin-3-yl)-1H-pyrazol-3-yl)propyl)morpholine], the Ki came out at 154 nM.

For the compound `Cc1cc(COCCN2CCCC2)nn1-c1ccc(Cl)c(Cl)c1` [Compound 8, 1-(3,4-dichlorophenyl)-5-methyl-3-((2-(pyrrolidin-1-yl)ethoxy)methyl)-1H-pyrazole], the Ki turned out to be 6.12 nM.

The compound `Cc1cc(COCCN2CCOCC2)nn1C1CCCCC1` [Compound 6, 4-(2-((1-cyclohexyl-5-methyl-1H-pyrazol-3-yl)methoxy)ethyl)-morpholine] had an inhibitory constant (Ki) of 23.6 nM.

With `Cc1cc(CCCN2CCOCC2)nn1-c1ccc2ccccc2c1` [Compound 4, 4-{3-[5-Methyl-1-(2-naphthyl)-1H-pyrazol-3-yl]propyl}morpholine], the inhibition constant (Ki) worked out at 132 nM. Against the preceding compound, the Ki is about 5.6-fold higher.

`Cc1cc(COCCN2C[C@@H](C)N[C@@H](C)C2)nn1C1CCCCC1` [Compound 23, (3S,5R)-1-(2-((1-cyclohexyl-5-methyl-1H-pyrazol-3-yl)methoxy)ethyl)-3,5-dimethylpiperazine hydrochloride] gave a Ki of 488 nM.

`Cc1cc(COCCN2CCOCC2)nn1-c1cnc2ccccc2c1` [Compound 12, 4-(2-((5-methyl-1-(quinolin-3-yl)-1H-pyrazol-3-yl)methoxy)ethyl)-morpholine] returned a Ki of 771 nM.

For the compound `Cc1cc(CCOCCN2CCOCC2)nn1-c1ccc(Cl)c(Cl)c1` [Compound 5, 4-(2-{2-[1-(3,4-dichlorophenyl)-5-methyl-1H-pyrazol-3-yl]ethoxy)ethyl}morpholine], the affinity, expressed as Ki, was 113 nM.

Compound `Cc1cc(COCCN2CCOCC2)nn1-c1ccc2ccccc2c1` [Compound 2, 4-(2-{[1-(2-naphthyl)-5-methyl-1H-pyrazol-3-yl]methoxy}ethyl)morpholine] yielded an inhibition constant Ki of 209 nM.

`Cc1cc(CCCN2CCOCC2)nn1-c1ccc(Cl)c(Cl)c1` [Compound 3, 4-{3-[1-(3,4-dichlorophenyl)-5-methyl-1H-pyrazol-3-yl]propyl}morpholine]: the inhibition constant (Ki) was found to be 4.74 nM.

Turning to `Cc1c(COCCN2CCOCC2)nn(-c2ccc(Cl)c(Cl)c2)c1C` [Compound 16, 4-(2-((1-(3,4-dichlorophenyl)-4,5-dimethyl-1H-pyrazol-3-yl)methoxy)ethyl)-morpholine], affinity was put at a Ki of 22.9 nM.

`Cc1cc(COCCN2C[C@@H](C)O[C@@H](C)C2)nn1-c1ccc(Cl)c(Cl)c1` [Compound 11, (2S,6R)-4-(2-((1-(3,4-dichlorophenyl)-5-methyl-1H-pyrazol-3-yl)methoxy)ethyl)-2,6-dimethylmorpholine] gave a Ki of 3.2 nM.

For the compound `Clc1ccc(-n2ccc(CCCCN3CCOCC3)n2)cc1Cl` [Compound 18, 4-(4-(1-(3,4-dichlorophenyl)-1H-pyrazol-3-yl)butyl)morpholine], the inhibitory constant (Ki) came out at 6.28 nM.

Regarding `Clc1ccc(-n2ccc(COCCN3CCOCC3)n2)cc1Cl` [Compound 15, 4-(2-((1-(3,4-dichlorophenyl)-1H-pyrazol-3-yl)methoxy)ethyl)-morpholine], the inhibitory constant (Ki) is 2.13 nM.

`Cc1cc(CCCCN2CCOCC2)nn1-c1ccc(Cl)c(Cl)c1` [Compound 13, 4-(4-(1-(3,4-dichlorophenyl)-5-methyl-1H-pyrazol-3-yl)butyl)morpholine] came in with a Ki of 8.62 nM.

The compound `Cc1cc(COCCN2CCOCC2)nn1-c1ccc(Cl)c(Cl)c1` [Compound 1, 4-(2-{[1-(3,4-dichlorophenyl)-5-methyl-1H-pyrazol-3-yl]methoxy}ethyl)morpholine] gave a Ki of 13.8 nM. This Ki is about 1.6-fold higher than that of the compound before.

In the case of `Cc1cc(CCOCCN2CCOCC2)nn1C1CCCCC1` [Compound 24, 4-(2-(2-(1-cyclohexyl-5-methyl-1H-pyrazol-3-yl)ethoxy)ethyl)-morpholine hydrochloride], the inhibition constant Ki was 266 nM.

The compound `Cc1cc(COCCN2CCCCC2)nn1-c1ccc(Cl)c(Cl)c1` [Compound 9, 1-(2-((1-(3,4-dichlorophenyl)-5-methyl-1H-pyrazol-3-yl)methoxy)ethyl)-piperidine] returned a Ki of 2.09 nM.

Regarding `Cc1cc(COCCN2CCOCC2)nn1C1CCCC1` [Compound 21, 4-(2-((1-cyclopentyl-5-methyl-1H-pyrazol-3-yl)methoxy)ethyl)-morpholine], the inhibitory constant (Ki) stood at 240 nM.

In turn, `CC(=O)N1CCN(CCOCc2cc(C)n(-c3ccc(Cl)c(Cl)c3)n2)CC1` [Compound 10, 1-(4-(2-((1-(3,4-dichlorophenyl)-5-methyl-1H-pyrazol-3-yl)methoxy)ethyl)-piperazin-1-yl)-ethanone] gave a Ki of 14.6 nM.

Compound `CC(=O)N1CCN(CCOCc2cc(C)n(C3CCCCC3)n2)CC1` [Compound 22, 1-(4-(2-((1-cyclohexyl-5-methyl-1H-pyrazol-3-yl)methoxy)ethyl)-piperazin-1-yl)ethanone hydrochloride] came in with a Ki of 101 nM.

For `Cc1cc(CCCN2CCOCC2)nn1C1CCCCC1` [Compound 7, 4-(3-(1-cyclohexyl-5-methyl-1H-pyrazol-3-yl)propyl)morpholine], the Ki is 53.3 nM.

Compound `Cc1cc(COCCCN2CCOCC2)nn1C1CCCCC1` [Compound 20, 4-(3-((1-cyclohexyl-5-methyl-1H-pyrazol-3-yl)methoxy)propyl)-morpholine] displayed a Ki of 6.8 nM.

For the compound `Cc1cc(CCCN2CCOCC2)nn1-c1cnc2ccccc2c1` [Compound 14, 4-(3-(5-methyl-1-(quinolin-3-yl)-1H-pyrazol-3-yl)propyl)morpholine], affinity was put at a Ki of 281 nM.

As to `Cc1c(COCCN2CCOCC2)nn(C2CCCCC2)c1C` [Compound 26, 4-(2-((1-cyclohexyl-4,5-dimethyl-1H-pyrazol-3-yl)methoxy)ethyl)-morpholine hydrochloride], the Ki was 110 nM.

`c1cn(C2CCCCC2)nc1COCCN1CCOCC1` [Compound 25, 4-(2-((1-cyclohexyl-1H-pyrazol-3-yl)methoxy)ethyl)-morpholine-hydrochloride]: the Ki came out at 11.3 nM.
